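Tested at 5 concentrations; 48 h exposure; 96-well plates; endpoints linearly interpolated, else capped at highest concentration. Abbreviation: GI50, concentration required for 50% inhibition of growth. TGI: total growth inhibition.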
Legend:
Experiment in all cases: DTP human tumour cell line panel, 48 h
NCI-H23 lung = system: NCI-H23 lung
TK-10 renal = system: TK-10 renal
SK-MEL-2 melanoma = system: SK-MEL-2 melanoma
IGROV1 ovarian = system: IGROV1 ovarian
SN12C renal = system: SN12C renal
SK-OV-3 ovarian = system: SK-OV-3 ovarian
HOP-92 NSCLC = system: HOP-92 NSCLC
U251 CNS = system: U251 CNS
DU-145 prostate = system: DU-145 prostate
BT-549 breast = system: BT-549 breast

| Structure (SMILES) | TGI (NCI-H23 lung) [µM] | TGI (TK-10 renal) [µM] | TGI (SK-MEL-2 melanoma) [µM] | TGI (IGROV1 ovarian) [µM] | TGI (SN12C renal) [µM] | TGI (SK-OV-3 ovarian) [µM] | TGI (HOP-92 NSCLC) [µM] | TGI (U251 CNS) [µM] | GI50 (NCI-H23 lung) [µM] | GI50 (TK-10 renal) [µM] | GI50 (DU-145 prostate) [µM] | TGI (DU-145 prostate) [µM] | GI50 (SK-MEL-2 melanoma) [µM] | GI50 (IGROV1 ovarian) [µM] | GI50 (SN12C renal) [µM] | GI50 (SK-OV-3 ovarian) [µM] | GI50 (HOP-92 NSCLC) [µM] | GI50 (U251 CNS) [µM] | GI50 (BT-549 breast) [µM] | TGI (BT-549 breast) [µM] |
| --- | --- | --- | --- | --- | --- | --- | --- | --- | --- | --- | --- | --- | --- | --- | --- | --- | --- | --- | --- | --- |
| CC1=C(C(=O)CC(=O)C(=O)Nc2cc(C)ccc2C)Sc2ccccc2N1 | > 100 | > 100 | > 100 | > 100 | > 100 | > 100 | > 100 | > 100 | – | – | – | – | – | – | – | – | – | – | – | – |
| C=C1C(=O)OC2C/C(C)=C/CC/C(C)=C/CCC3(COC(C)=O)OC3CC12 (configuration not stated) | 26 | 19.5 | 14.4 | 31.9 | 34.1 | 26.7 | – | 23.3 | – | – | – | – | – | – | – | – | – | – | – | – |
| CCC(=O)c1c(NOC2OCC(OC(C)=O)C(OC(C)=O)C2OC(C)=O)nc(OC)n(C)c1=O (configuration not stated) | > 100 | > 100 | – | > 100 | > 100 | > 100 | > 100 | > 100 | – | – | – | – | – | – | – | – | – | – | – | – |
| Cc1ccccc1NC(=O)c1cc(-c2ccc([N+](=O)[O-])cc2)nc(=S)[nH]1 | > 100 | > 100 | > 100 | > 100 | > 100 | > 100 | > 100 | > 100 | – | – | – | – | – | – | – | – | – | – | – | – |
| NS(=O)(=O)c1ccc(-n2nc3c(c2-c2ccc(Cl)cc2)Cc2ccccc2-3)cc1 | 19.6 | 35.6 | 29.3 | 14.2 | 18.3 | > 100 | 24.5 | 37.3 | 3.27 | 19.5 | 15.1 | 33 | 13.6 | 2.58 | 5.49 | 77.1 | 11.6 | 19.5 | – | – |
| CCOC(=O)C1=C(Nc2ccc(Cl)cc2Cl)OCC1=O | > 100 | > 100 | > 100 | > 100 | > 100 | > 100 | > 100 | > 100 | – | – | – | – | – | – | – | – | – | – | – | – |
| C=CCn1c(C)nc2ccc(Nc3nc(Nc4ccc(F)cc4)nc4ccccc34)cc21 | 26 | 24.6 | 11.4 | 27.2 | 15.1 | – | 6.97 | 14.9 | 4.23 | 6.83 | 8.63 | 22.8 | 3.16 | 6.09 | 2.78 | – | 0.585 | 3.15 | 3.35 | 18.1 |
| COc1cccc(/C(C#N)=C/c2nc3c(N4CCOCC4)nc(Cl)nc3n2C)c1 | 3.19 | – | 2.81 | 2.49 | 2.45 | 18.3 | 2.21 | 2.66 | 1.52 | – | 1.29 | 2.58 | 1.4 | 1.2 | 1.1 | 5.42 | 0.453 | 1.26 | 0.631 | 2.04 |
| O=C(O)c1ccc(NCn2nc(-c3ccccc3O)oc2=S)cc1 | > 100 | > 100 | > 100 | > 100 | > 100 | – | 82.6 | > 100 | 50.7 | > 100 | – | – | > 100 | > 100 | 50.5 | – | 33.8 | 43.1 | 59.6 | > 100 |
| COC/C=C\COC | – | > 100 | > 100 | > 100 | > 100 | > 100 | > 100 | > 100 | – | – | – | – | – | – | – | – | – | – | – | – |
| CC(=O)N/N=C1\CC(C)(C)C2CCC1C2 (configuration not stated) | > 100 | > 100 | > 100 | > 100 | > 100 | > 100 | > 100 | > 100 | – | – | – | – | – | – | – | – | – | – | – | – |
| COc1ccc2cc(/C=C/C(=O)c3ccc(Cl)cc3Cl)ccc2c1 | > 100 | > 100 | 69.9 | > 100 | 50.9 | – | > 100 | > 100 | 47 | 77.9 | 32.6 | > 100 | 24 | 42.9 | 20.3 | – | 97.7 | 27.9 | 33 | 96.7 |
| COc1ccc(/C=C/C(=O)/C=C/c2cc3ccccc3[nH]c2=O)cc1 | 19.8 | 17.4 | – | 5.1 | 6.73 | 26.7 | – | 3.73 | 4.31 | 5.45 | 3.36 | 10.3 | – | 2.21 | 2.41 | 9.22 | – | 1.81 | 2.25 | 6.19 |
| CCCNC(=O)C1C(=O)C(=O)N(CCC)C1=O (configuration not stated) | > 100 | > 100 | > 100 | > 100 | > 100 | > 100 | > 100 | > 100 | – | – | – | – | – | – | – | – | – | – | – | – |
| N/N=C1\C(=O)N(C2CCCCCC2)C(=O)C1C(=O)NC1CCCCCC1 (configuration not stated) | 52.1 | > 10 | 37.6 | > 100 | 65.6 | – | 41.6 | 31.7 | – | – | – | – | – | – | – | – | – | – | – | – |
| CC1=C[C@H]2c3c([nH]c4ccccc34)C(c3c[nH]c4ccccc34)[C@H]2CC1 (some centres not stated) | – | 28.5 | – | 22.4 | 12.9 | 26.6 | 5.34 | 16.3 | – | – | – | – | – | – | – | – | – | – | – | – |
| CCC[CH2][Sn]([Cl])([Cl])[CH2]CCC | 2.21 | 1.77 | 1.54 | 1.62 | 2.25 | 3.08 | 2.64 | 1.62 | 0.62 | 0.569 | – | – | 0.495 | 1.04 | 0.966 | 1.67 | 1.15 | 0.472 | – | – |
| COc1ccc(NC(=O)CC2SC(=Nc3ccccc3C)NC2=O)c([N+](=O)[O-])c1 (configuration not stated) | > 100 | > 100 | > 100 | > 100 | > 100 | > 100 | > 100 | > 100 | – | – | – | – | – | – | – | – | – | – | – | – |

Source: PubChem BioAssay (NCI)
